Measurements as given in patent US20080286388A1, “Pharmaceutical Composition and Non Dependence Coffee Comprising Edible Carboxylic Acid and/or Its Acid Salts and Coffeine” (priority 2004, published 2008).
In brackets after ≈: the same amount, converted by molar mass. Read-outs that look alike come from different tables or passages of the source. One block for each molecule: values may come before it.

Experiments:
[1] = tested on: mouse's leaching cell solution (abdominal cavity cells), histamine release by 48/80 compound; assay: Drug inhibiting effect on histamine leaching from mouse abdominal cavity cells treated with 48/80 compound; type: cell-based; conditions: for inhibition at 100 µg/mL / IC50 / inhibition at 2 µg/mL / inhibition at 5 µg/mL / inhibition at 10 µg/mL / inhibition at 50 µg/mL / inhibition at 300 µg/mL / inhibition at 1000 µg/mL: Mus musculus; for IC50: read-out: IC50 value (concentration for inhibiting rate of 50%)
Procedure: This is a comparative testing for drug depressing effect on the amount of leaching histamines when is treated with 48/80 (Sigma, St. MO, USA) compound.
(1). Preparation of Leaching Cell Solution from Mouse Body.
A mouse is killed and bloodletting. Then 10 ml of Locke's solution containing 0.1% bovine serum protein is injected into its abdominal cavity. After abdominal cavity being light massaged, the cavity is cut and the Locke's solution is removed. Cavity is washed with another 5 ml of Locke's solution, and this washed solution is added to the latter one. This combined solution is centrifuged at 600 rpm for 5 minutes. The sediments are washed with 5 ml of cool Locke's solution. Adding 3 ml of cold Locke's solution to the washed sediments, then a leached cell solution of abdominal cavity is obtained. (The composition of Locke's solution is: NaCL […], KCL 0.2%, CaCL2 0.15%, glucose 1.0%, in w/v, and the rest distillated water.)
(2). Drug Inhibiting Effect on the Amount of Leaching Histamines when Treated with 48/80 Compound.
1.0 ml of each of those solutions in last term is mixed with 0.3 ml of mouse's leaching cell solution and 0.5 ml of Locke's solution. This mixture is cultivated at 37° C. for 5 minutes. Then adding 0.2 ml of Locke's solution of 48/80 compound (1 mg/100 ml) and cultivated at 37° C. for 10 minutes. Then the reaction is stopped by cooling, and centrifuged at 2,500 rpm for 10 minutes. 1.7 ml of decanted solution and 0.3 ml of sediments are obtained.
0.1 ml of water and 0.2 ml of 100% trichloroacetic acid are added to the decanted solution. 1.5 ml of Locke's solution and 0.2 ml of 100% trichloroacetic acid are added to the sediments washed solution. They are cultivated at room temperature for 30 minutes. After cultivation, the mixtures are centrifuged at 3,000 rpm for 15 minutes, respectively. 0.35 ml of each of the former two solutions is sampled. In each sample, 1.65 ml of water, 0.4 ml of 1N NaOH and 0.1 ml of 0.5% OPT (o-phthalic aldehyde) in methanol are added and cultivated at room temperature for 4 minutes. The reaction is stopped by adding 0.2 ml of 2M citric acid. And finally, determine the amount of released histamines in the tested solution by fluorescence method. By the analysis, results of the inhibiting rate of histamines could be calculated.
Locke's solution is instead of each drug in control group, and instead of both drug and 48/80 compound solution in blank group.
The histamine releasing rate (A) can be calculated by following equation. […] Where (Hs) is the total amount of histamine in the decanted solution, and (Hr) is the total amount of histamine in the sediment. (A)=[(Hs)/{(Hs)+(Hr)}]×100%. Then the inhibiting rate is:
=100−[(A−A in blank group)/(A−A in control group)]×100%.

person = assay: Tests for increase the ability of learning and memory; type: in vivo, human; conditions: three pieces of 600 mg, average of four tests before and after ingesting; for change in vivo at 1800 mg: Homo sapiens, po, read-out: Increase rate (%) of memory ability
Procedure: A person administrates see a random series of 100 numbers, typed by PC, for 10 minutes and memory it. Then recite and write down the memorized number series. To check the recited series with the original one to see how many numbers are correct. In each testing at least has 10 minutes interval, and repeat four times. […] Each kind of drugs testing is done in half day, morning or afternoon only. The testing results were counted by one correct number for one point. Make the average value of four times testing of before and after drug ingesting, respectively. The increase of learning or memory ability is calculated by following equation and listed in Table 14: Rate of increase of memory ability=[(average value of four time testing before ingesting drug)−(average value of four times testing after ingesting drug)]×100%/(average value of four time testing before ingesting drug)

[2] = testing drug 100 μg/ml, adding 5% of coffee extract
[3] = testing drug 100 μg/ml, non adding coffee extract
[4] = testing drug 100 μg/ml, adding 5% of coffee extract, read-out: inhibiting rate (%) (adding 5% of coffee extract)
[5] = testing drug 100 μg/ml, non adding coffee extract, read-out: Inhibiting rate (%) (non adding coffee extract)
[6] = adding 5% of coffee extract, calculated by figure
[7] = dose 2 μg/ml, adding 5% of coffee extract
[8] = dose 5 μg/ml, adding 5% of coffee extract
[9] = dose 10 μg/ml, adding 5% of coffee extract
[10] = dose 50 μg/ml, adding 5% of coffee extract
[11] = dose 100 μg/ml, adding 5% of coffee extract
[12] = dose 300 μg/ml, adding 5% of coffee extract
[13] = dose 1000 μg/ml, adding 5% of coffee extract

Structure (SMILES): O=C([O-])CC(O)(CC(=O)O)C(=O)[O-].[K+].[K+] [dipotassium hydrogen citrate]
inhibiting rate (%) (adding 5% of coffee extract) [1, 2]: 48.7% | Inhibiting rate (%) (non adding coffee extract) [1, 3]: 40.0%

Structure (SMILES): O=C([O-])CC(O)(CC(=O)[O-])C(=O)O.[Na+].[Na+] [disodium hydrogen citrate]
inhibiting rate (%) (adding 5% of coffee extract) [1, 2]: 49.4% | Inhibiting rate (%) (non adding coffee extract) [1, 3]: 39.1%

Structure (SMILES): CC(=O)O [acetic acid]
inhibition at 100 µg/mL [1, 4]: 100% | inhibition at 100 µg/mL [1, 5]: 100% | change in vivo at 1800 mg (person): 307%

Structure (SMILES): O=C([O-])/C=C/C(=O)O.[Na+] [sodium hydrogen fumate]
inhibiting rate (%) (adding 5% of coffee extract) [1, 2]: 100% | Inhibiting rate (%) (non adding coffee extract) [1, 3]: 100%

Structure (SMILES): O=C1O[C@H](CO)[C@@H](O)[C@H](O)[C@H]1O [gluconolactone]
inhibition at 100 µg/mL [1, 4]: 100% | inhibition at 100 µg/mL [1, 5]: 100% | change in vivo at 1800 mg (person): 290%

Structure (SMILES): O=C([O-])CCC(=O)O.[Na+] [sodium hydrogen succinate]
inhibiting rate (%) (adding 5% of coffee extract) [1, 2]: 100% | Inhibiting rate (%) (non adding coffee extract) [1, 3]: 100%

Structure (SMILES): O=C(O)CCC(=O)O [Succinic acid]
IC50 [1, 6]: 5.8 µg/mL (≈ 49.1 µM) | inhibition at 2 µg/mL ([1]; dose 2 μg/ml, adding 5% of coffee extract, read-out: Inhibiting rate (%)): 24.9% | inhibition at 2 µg/mL ([1]; dose 2 μg/ml, non-adding coffee extract, read-out: Inhibiting rate (%)): 17.9% | inhibition at 5 µg/mL ([1]; dose 5 μg/ml, adding 5% of coffee extract, read-out: Inhibiting rate (%)): 43.6% | inhibition at 5 µg/mL ([1]; dose 5 μg/ml, non-adding coffee extract, read-out: Inhibiting rate (%)): 37.7% | inhibition at 10 µg/mL ([1]; dose 10 μg/ml, adding 5% of coffee extract, read-out: Inhibiting rate (%)): 87.9% | inhibition at 10 µg/mL ([1]; dose 10 μg/ml, non-adding coffee extract, read-out: Inhibiting rate (%)): 84% | inhibition at 50 µg/mL ([1]; dose 50 μg/ml, adding 5% of coffee extract, read-out: Inhibiting rate (%)): 100% | inhibition at 50 µg/mL ([1]; dose 50 μg/ml, non-adding coffee extract, read-out: Inhibiting rate (%)): 100% | inhibition at 100 µg/mL ([1]; dose 100 μg/ml, adding 5% of coffee extract, read-out: Inhibiting rate (%)): 100% | inhibition at 100 µg/mL ([1]; dose 100 μg/ml, non-adding coffee extract, read-out: Inhibiting rate (%)): 100% | inhibition at 300 µg/mL ([1]; dose 300 μg/ml, adding 5% of coffee extract, read-out: Inhibiting rate (%)): 100% | inhibition at 300 µg/mL ([1]; dose 300 μg/ml, non-adding coffee extract, read-out: Inhibiting rate (%)): 100% | inhibition at 1000 µg/mL ([1]; dose 1000 μg/ml, adding 5% of coffee extract, read-out: Inhibiting rate (%)): 100% | inhibition at 1000 µg/mL ([1]; dose 1000 μg/ml, non-adding coffee extract, read-out: Inhibiting rate (%)): 100% | IC50 ([1]; non-adding coffee extract, calculated by figure): 7 µg/mL (≈ 59.3 µM) | inhibition at 100 µg/mL [1, 4]: 100% | inhibition at 100 µg/mL [1, 5]: 100% | Histamine releasing rate (%) [1, 7]: 70.5% | Histamine releasing rate (%) ([1]; dose 2 μg/ml, non-adding coffee extract): 76.2% | Histamine releasing rate (%) [1, 8]: 55.3% | Histamine releasing rate (%) ([1]; dose 5 μg/ml, non-adding coffee extract): 60.1% | Histamine releasing rate (%) [1, 9]: 19.3% | Histamine releasing rate (%) ([1]; dose 10 μg/ml, non-adding coffee extract): 22.5% | Histamine releasing rate (%) [1, 10]: 9.1% | Histamine releasing rate (%) ([1]; dose 50 μg/ml, non-adding coffee extract): 9.1% | Histamine releasing rate (%) [1, 11]: 9.3% | Histamine releasing rate (%) ([1]; dose 100 μg/ml, non-adding coffee extract): 9.3% | Histamine releasing rate (%) [1, 12]: 9.4% | Histamine releasing rate (%) ([1]; dose 300 μg/ml, non-adding coffee extract): 9.4% | Histamine releasing rate (%) [1, 13]: 9.4% | Histamine releasing rate (%) ([1]; dose 1000 μg/ml, non-adding coffee extract): 9.4% | change in vivo at 1800 mg (person): 330%

Structure (SMILES): O=C(O)CCC(=O)C(=O)O [keto-glutaric acid]
inhibiting rate (%) (adding 5% of coffee extract) [1, 2]: 100% | Inhibiting rate (%) (non adding coffee extract) [1, 3]: 100% | Increase rate (%) of memory ability (person): 321%

Structure (SMILES): O=C(O)CC(=O)C(=O)O [oxalacetic acid]
inhibition at 100 µg/mL [1, 4]: 100% | inhibition at 100 µg/mL [1, 5]: 100% | change in vivo at 1800 mg (person): 310%

Structure (SMILES): O=C([O-])/C=C\C(=O)O.[K+] [potassium hydrogen maleate]
inhibiting rate (%) (adding 5% of coffee extract) [1, 2]: 100% | Inhibiting rate (%) (non adding coffee extract) [1, 3]: 100%

Structure (SMILES): O=C([O-])C(O)C(O)C(=O)O.[K+] (stereo not shown) [potassium hydrogen tartrate]
inhibiting rate (%) (adding 5% of coffee extract) [1, 2]: 100% | Inhibiting rate (%) (non adding coffee extract) [1, 3]: 100%

IC50 value (concentration for inhibiting rate of 50%) [1, 6]: 200 µg/mL
Structure (SMILES): CC1(C)[C@@H](O[C@H]2O[C@H](C(=O)[O-])[C@@H](O)[C@H](O)[C@H]2O[C@@H]2O[C@H](C(=O)[O-])[C@@H](O)[C@H](O)[C@H]2O)CC[C@]2(C)[C@H]3C(=O)C=C4[C@@H]5C[C@@](C)(C(=O)[O-])CC[C@]5(C)CC[C@@]4(C)[C@]3(C)CC[C@@H]12.[Na+].[Na+].[Na+] [Trisodium glycyrrhizinate, reference compound]
Histamine releasing rate (%) [1, 7]: 90.1% | Inhibiting rate (%) [1, 7]: 0.8% | Histamine releasing rate (%) [1, 8]: 89.5% | Inhibiting rate (%) [1, 8]: 1.6% | Histamine releasing rate (%) [1, 9]: 88.1% | Inhibiting rate (%) [1, 9]: 3.3% | Inhibiting rate (%) [1, 10]: 17.8% | Histamine releasing rate (%) [1, 11]: 65.5% | Inhibiting rate (%) [1, 11]: 31.1% | Histamine releasing rate (%) [1, 12]: 32.7% | Inhibiting rate (%) [1, 12]: 70.5% | Histamine releasing rate (%) [1, 13]: 9.2% | Inhibiting rate (%) [1, 13]: 100% | inhibiting rate (%) (adding 5% of coffee extract) [1, 2]: 48.3% | Inhibiting rate (%) (non adding coffee extract) [1, 3]: 30.9%
